Measurements as given in patent publication US11332430B1, “Pleuromulin lauric acid ester with antibacterial activity and a method of preparing the same” (priority 2021, dated 2022).

Key:
[1] = test system: MRSA-575; test: paper diffusion method drug sensitivity test, MRSA-575; type: cell-based, Staphylococcus aureus; conditions: 30 μg/tablet, 37° C., 24 h, ≥17 mm sensitive, 15-16 mm intermediary, ≤14 mm drug resistance
Description: (§1) The antimicrobial efficacy was determined by a paper diffusion method drug sensitivity test.
(§2) Experimental strains: multi-resistant Staphylococcus aureus 171, multi-resistant Staphylococcus aureus 575, multi-resistant Staphylococcus aureus 596. The experimental strain was identified by Huashan Hospital Affiliated to Fudan University (Institute of Antibiotic of Fudan University).
(§3) Drug sensitive paper: The drug sensitive paper is a special drug sensitive paper with a diameter of 6.35 mm and a water absorption of 0.02 mL. The control was vancomycin (30 μg/tablet); the test compounds were pleuromulin (30 μg/tablet), lauric acid (30 μg/tablet) and pleuromulin lauric acid ester (30 μg/tablet).
(§4) The experimental strains were inoculated in non-selective medium and placed in air at 37° C. for 24 h. A single colony that grows well and inoculate it into broth medium was incubate at 35° C.±2° C. for 6 hours, and LA broth medium was used to calibrate the concentration of the bacterial solution to 0.5 Mie turbidimetric tube (1.5×10^8 CFU/mL). A bacterial suspension was obtained.
(§5) LB dry powder was weighed, sterilized at 103.4 Kpa, 121.3° C. high-pressure steam for 15 min, and then placed it in a 40° C.-50° C. water bath. A sterile empty plate (inner diameter 9 cm) was placed on the surface of the ultra-clean table water table, and […] was poured to the plate. The thickness of each plate was 3 mm to 4 mm. After the plate was cooled at room temperature, it was stored in the refrigerator at 2° C.-8° C. A sterile cotton swab was used to dip the bacterial solution and ti evenly coat the surface of the LB plate 3 times. After inoculation of the bacterial suspension, the LB plate was dried at room temperature for 3 min to 5 min. Sterile forceps were used to closely attach the antibacterial drug paper to the dish. The dish was put upside down and placed in a 37° C. incubator for 24 h. The results were observed by measuring the diameter. Taking 0.5% DMSO solution as a negative control, the antibacterial activity is expressed by the diameter of the inhibition zone. The inhibition zone ≥17 mm, sensitive; the inhibition zone of 15 mm-16 mm, intermediary; the inhibition zone ≤14 mm, drug resistance.

[2] = test system: MRSA-206; test: paper diffusion method drug sensitivity test, MRSA-206; type: cell-based, Staphylococcus aureus; conditions: 30 μg/tablet, 37° C., 24 h, ≥17 mm sensitive, 15-16 mm intermediary, ≤14 mm drug resistance
[3] = test system: MRSA-596; test: paper diffusion method drug sensitivity test, MRSA-596; type: cell-based, Staphylococcus aureus; conditions: 30 μg/tablet, 37° C., 24 h, ≥17 mm sensitive, 15-16 mm intermediary, ≤14 mm drug resistance
Description: as §1, §2, §3, §4, §5

[4] = test system: multi-drug resistant Staphylococcus aureus 206, 575, 596; test: paper diffusion method drug sensitivity test, summary over the strains; type: cell-based; conditions: 30 μg/tablet
Description: as §1, §2, §3, §4, §5

[5] = listed as Pleuromutilin lauric acid derivative

| SMILES | Zone of inhibition [1] [mm] | Zone of inhibition [2] [mm] | Zone of inhibition [3] [mm] | inhibitory effect on drug-resistant bacteria (in words) [4] | Zone of inhibition [1, 5] | inhibitory effect on drug-resistant bacteria (in words) [4, 5] |
| --- | --- | --- | --- | --- | --- | --- |
| CN[C@H](CC(C)C)C(=O)N[C@H]1C(=O)N[C@@H](CC(N)=O)C(=O)N[C@H]2C(=O)N[C@H]3C(=O)N[C@H](C(=O)N[C@H](C(=O)O)c4cc(O)cc(O)c4-c4cc3ccc4O)[C@H](O)c3ccc(c(Cl)c3)Oc3cc2cc(c3O[C@@H]2O[C@H](CO)[C@@H](O)[C@H](O)[C@H]2O[C@H]2C[C@](C)(N)[C@H](O)[C@H](C)O2)Oc2ccc(cc2Cl)[C@H]1O [Vancomycin] | 17 | 15 | 23 | – | – | – |
| CCCCCCCCCCCC(=O)O [Laurie acid, Lauric acid] | 0 | 0 | 0 | no inhibitory effect | – | – |
| C=C[C@]1(C)C[C@@H](OC(=O)COC(=O)CCCCCCCCCCC)[C@]2(C)CC[C@@H](C)[C@@]3(CCC(=O)[C@@H]23)[C@@H](C)[C@@H]1O [Pleuromulinlauric acid ester, 2-(((3aS,4R,5S,6S,8R,9R,9aR,12R)-5-hydroxy-4,6,9,12-tetramethyl-1-oxo-6-vinyldecahydro-3a,9-propanocyclopenta[8]annulen-8-yl)oxy)-2-oxoethyl Dodecanoate] | 25 | 13 | 12 | excellent antibacterial activity | up to 25 mm | strong inhibitory effects |
| C=C[C@]1(C)C[C@@H](OC(=O)CO)[C@]2(C)[C@H](C)CC[C@]3(CCC(=O)[C@H]32)[C@@H](C)[C@@H]1O [Pleuromulin] | 0 | 0 | 0 | no inhibitory effect | – | – |
